Results: US11427548B2 (Arvinas Operations, Inc., priority 2015, dated 2022)
Read-outs that look alike come from different tables or passages of the source.

Molecular target: T1, Androgen Receptor (Homo sapiens, UniProt P10275)
T1 construct: endogenous in cells; host or cells: VCaP cells
T1 sequence (P10275 1-920): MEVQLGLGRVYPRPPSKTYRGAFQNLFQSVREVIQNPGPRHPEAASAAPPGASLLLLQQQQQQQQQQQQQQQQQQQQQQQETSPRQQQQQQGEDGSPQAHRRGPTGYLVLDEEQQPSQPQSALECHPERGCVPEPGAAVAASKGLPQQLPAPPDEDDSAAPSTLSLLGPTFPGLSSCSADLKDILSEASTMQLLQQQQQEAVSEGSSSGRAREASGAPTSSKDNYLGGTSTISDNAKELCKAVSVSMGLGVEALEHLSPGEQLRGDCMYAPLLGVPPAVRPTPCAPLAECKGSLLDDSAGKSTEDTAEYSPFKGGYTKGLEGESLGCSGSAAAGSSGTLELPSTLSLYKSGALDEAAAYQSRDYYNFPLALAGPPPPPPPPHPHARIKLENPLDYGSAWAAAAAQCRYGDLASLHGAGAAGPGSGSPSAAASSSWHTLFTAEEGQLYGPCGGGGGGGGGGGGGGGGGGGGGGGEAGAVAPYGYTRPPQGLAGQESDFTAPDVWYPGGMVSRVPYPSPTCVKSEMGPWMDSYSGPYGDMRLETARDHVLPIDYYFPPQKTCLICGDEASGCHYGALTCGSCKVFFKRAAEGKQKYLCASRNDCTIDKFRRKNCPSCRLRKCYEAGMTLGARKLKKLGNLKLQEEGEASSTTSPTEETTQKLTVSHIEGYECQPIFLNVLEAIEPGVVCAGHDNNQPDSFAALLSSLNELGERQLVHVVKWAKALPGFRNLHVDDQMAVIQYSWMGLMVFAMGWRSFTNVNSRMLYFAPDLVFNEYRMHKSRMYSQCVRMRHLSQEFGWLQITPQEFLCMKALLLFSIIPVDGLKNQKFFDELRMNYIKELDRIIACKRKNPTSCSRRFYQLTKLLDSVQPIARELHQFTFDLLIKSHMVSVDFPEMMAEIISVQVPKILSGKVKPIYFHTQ
Experiment: Androgen Receptor ELISA assay (PathScan AR ELISA) in VCaP cells: AR degradation, Dmax and DC50
Assay type: cell-based
Method in brief: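 VCaP cells, 30,000/well, grown ≥3 days in phenol red-free RPMI with 5% charcoal-stripped FBS; compound added in 0.1% DMSO with 0.1 nM R1881, 7 half-log doses, 24 h. Lysate AR quantified by PathScan sandwich ELISA, HRP/TMB read at 450 nm, giving DC50 and Dmax.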

[1] = VCaP cells; Table 36; read-out: VCaP DC50
[2] = VCaP, VCaP cells; Table 36; read-out: VCaP Dmax (%)

Compound	DC50 [1] [nM]	Dmax [2] [%]	Dmax (VCaP, read-out: VCaP Dmax (%)) [%]	DC50 (read-out: VCaP DC50; VCaP cells; Table 36) [nM]
Cc1ncsc1-c1ccc(CNC(=O)[C@@H]2C[C@@H](O)CN2C(=O)[C@H](C(C)C)N2Cc3ccccc3C2=O)c(OCCN2CCN(c3ccc(C(=O)N[C@H]4C(C)(C)[C@H](Oc5ccc(C#N)c(C(F)(F)F)c5)C4(C)C)cn3)CC2)c1 [Example 733, N-((1r,3r)-3-(4-cyano-3-(trifluoromethyl)phenoxy)-2,2,4,4-tetramethylcyclobutyl)-6-(4-(2-(2-(((2S,4R)-4-hydroxy-1-((S)-3-methyl-2-(1-oxoisoindolin-2-yl)butanoyl)pyrrolidine-2-carboxamido)methyl)-5-(4-methylthiazol-5-yl)phenoxy)ethyl)piper-azin-1-yl)nicotinamide]	< 50	> 71	–	–
CC(=O)N[C@H](C(=O)N1C[C@H](O)C[C@H]1C(=O)N[C@@H](C)c1ccc(-c2scnc2C)cc1)[C@@H](C)OCCCN(C)CCc1ccc(C(=O)N[C@H]2C(C)(C)[C@H](Oc3ccc(C#N)c(Cl)c3)C2(C)C)cc1 [Example 734, (2S,4R)-1-(N-acetyl-O-(3-((4-(((1r,3r)-3-(3-chloro-4-cyanophenoxy)-2,2,4,4-tetramethylcyclobutyl)carbamoyl)phenethyl)(meth-yl)amino)propyl)-L-threonyl)-4-hydroxy-N-((S)-1-(4-(4-methylthiazol-5-yl)phenyl)ethyl)pyrrolidine-2-carboxamide]	> 501	< 25	–	–
Cc1cc(C(C(=O)N2C[C@H](O)C[C@H]2C(=O)NCc2ccc(Cl)cc2OCCOCCOCCOc2ccc(N3C(=S)N(c4ccc(C#N)c(C(F)(F)F)c4)C(=O)C3(C)C)cc2)C(C)C)on1 (stereo partly drawn) [Example 735, (2S,4R)-N-(4-chloro-2-(2-(2-(2-(4-(3-(4-cyano-3-(trifluoromethyl)phenyl)-5,5-dimethyl-4-oxo-2-thioxoimidazolidin-1-yl)phenoxy)ethoxy)eth-oxy)ethoxy)benzyl)-4-hydroxy-1-(3-methyl-2-(3-methylisoxazol-5-yl)butanoyl)pyrrolidine-2-carboxamide]	–	–	< 25	> 501
CC(C)(C)[C@H](NC(=O)COCCN1CCN(c2ccc(C(=O)N[C@H]3C(C)(C)[C@H](Oc4ccc(C#N)c(Cl)c4)C3(C)C)cn2)CC1)C(=O)N1C[C@H](O)C[C@H]1C(=O)NCc1ccc(C#N)cc1 [Example 736, N-((1r,3r)-3-(3-chloro-4-cyanophenoxy)-2,2,4,4-tetramethylcyclobutyl)-6-(4-(2-(2-(((S)-1-((2S,4R)-2-((4-cyanobenzyl)carbamoyl)-4-hydroxypyrrolidin-1-yl)-3,3-dimethyl-1-oxobutan-2-yl)amino)-2-oxoethoxy)ethyl)pipera-zin-1-yl)nicotinamide]	< 50	51 to 70	–	–
CC(C)(C)[C@H](NC(=O)COCCN1CCN(c2ccc(C(=O)N[C@H]3C(C)(C)[C@H](Oc4ccc(C#N)c(Cl)c4)C3(C)C)cn2)CC1)C(=O)N1C[C@H](O)C[C@H]1C(=O)NCc1ccc(Cl)cc1 [Example 737, N-((1r,3r)-3-(3-chloro-4-cyanophenoxy)-2,2,4,4-tetramethylcyclobutyl)-6-(4-(2-(2-(((S)-1-((2S,4R)-2-((4-chlorobenzyl)carbmaoyl)-4-hydroxypyrrolidin-1-yl)-3,3-dimethyl-1-oxobutan-2-yl)amino)-2-oxoethoxy)ethyl)pipera-zin-1-yl)nicotinamdie]	> 501	26 to 50	–	–
CC(C)C[C@@H](C(=O)N[C@@H](C)C(=O)N1C[C@H](O)C[C@H]1C(=O)N[C@@H](C)c1ccc(Cl)cc1)N1CCN(CCCc2ccc(C(=O)N[C@H]3C(C)(C)[C@H](Oc4ccc(C#N)c(Cl)c4)C3(C)C)cc2)CC1 [Example 738, (2S,4R)-1-(((S)-2-(4-(3-(4-(((1r,3r)-3-(3-chloro-4-cyanophenoxy)-2,2,4,4-tetramethylcyclobutyl)carbamoyl)phenyl)propyl)piperazin-1-yl)-4-methylpentanoyl)-L-alanyl)-N-((S)-1-(4-chlorophenyl)ethyl)-4-hydroxypyrrolidine-2-carboxamide]	> 501	< 25	–	–
C[C@H](NC(=O)[C@@H]1C[C@@H](O)CN1C(=O)[C@@H](NC(=O)CN1CCN(CCCc2ccc(C(=O)N[C@H]3C(C)(C)[C@H](Oc4ccc(C#N)c(Cl)c4)C3(C)C)cc2)CC1)C(C)(C)C)c1ccc(Cl)cc1 [Example 739, (2S,4R)-1-((S)-2-(2-(4-(3-(4-(((1r,3r)-3-(3-chloro-4-cyanophenoxy)-2,2,4,4-tetramethylcyclobutyl)carbamoyl)phenyl)propyl)piperazin-1-yl)acetamido)-3,3-dimethylbutanoyl)-N-((S)-1-(4-chlorophenyl)ethyl)-4-hydroxypyrrolidine-2-carboxamide]	> 501	< 25	–	–
C[C@H](NC(=O)C1C[C@@H](O)CN1C(=O)[C@@H](NC(=O)COCCCCCc1ccc(C(=O)N[C@H]2C(C)(C)[C@H](Oc3ccc(C#N)c(Cl)c3)C2(C)C)cc1)C(C)(C)C)c1ccc(Cl)cc1 (stereo partly drawn) [Example 740, (2S,4R)-1-((S)-2-(2-((5-(4-(((1r,3r)-3-(3-chloro-4-cyanophenoxy)-2,2,4,4-tetramethylcyclobutyl)carbamoyl)phenyl)pentyl)oxy)acetamido)-3,3-dimethylbutanoyl)-N-((S)-1-(4-chlorophenyl)ethyl)-4-hydroxypyrroldiine-2-carboxamide]	< 50	51 to 70	–	–
Cc1ncsc1-c1ccc([C@H](C)NC(=O)[C@@H]2C[C@@H](O)CN2C(=O)[C@@H](NC(=O)CN2CCN(CC3(Cc4ccc(C(=O)N[C@H]5C(C)(C)[C@H](Oc6ccc(C#N)c(C(F)(F)F)c6)C5(C)C)cc4)COC3)CC2)C(C)(C)C)cc1 [Example 741, (2S,4R)-1-((S)-2-(2-(4-((3-(4-(((1r,3r)-3-(4-cyano-3-(trifluoromethyl)phenoxy)-2,2,4,4-tetramethylcyclobutyl)carbamoyl)benzyl)oxetan-3-yl)methyl)piperazin-1-yl)acetamido)-3,3-dimethylbutanoyl)-4-hydroxy-N-((S)-1-(4-(4-methylthiazol-5-yl)phenyl)ethyl)pyrrolidine-2-carboxamide]	< 50	–	51 to 70	–
CC(C)[C@H](OCCN1CCN(c2ccc(C(=O)N[C@H]3C(C)(C)[C@H](Oc4ccc(C#N)c(Cl)c4)C3(C)C)cn2)CC1)C(=O)N[C@H](C(=O)N1C[C@H](O)C[C@H]1C(=O)NCc1ccc(Cl)cc1)C(C)(C)C [Example 742, N-((1r,3r)-3-(3-chloro-4-cyanophenoxy)-2,2,4,4-tetramethylcyclobutyl)-6-(4-(2-(((S)-1-(((S)-1-((2S,4R)-2-((4-chlorobenzyl)carbamoyl)-4-hydroxypyrrolidin-1-yl)-3,3-dimethyl-1-oxoutan-2-yl)amino)-3-methyl-1-oxobutan-2-yl)oxy)ethyl)piperazin-1-yl)nicotinamide]	> 501	< 25	–	–
CC(C)[C@@H](C(=O)N1C[C@H](O)C[C@H]1C(=O)NCc1ccc(Cl)cc1OCCN1CCN(c2ccc(C(=O)N[C@H]3C(C)(C)[C@H](Oc4ccc(C#N)c(Cl)c4)C3(C)C)cn2)CC1)N1Cc2ccccc2C1=O [Example 743, 6-(4-(2-(5-chloro-2-(((2S,4R)-4-hydroxy-1-((S)-3-methyl-2-(1-oxoisoindolin-2-yl)butanoyl)pyrrolidine-2-carboxamido)methyl)phenoxy)ethyl)piperazin-1-yl)-N-((1r,3r)-3-(3-chloro-4-cyanophenoxy)-2,2,4,4-tetramethylcyclobutyl) nicotinamide]	> 501	< 25	–	–
